Results taken from patent US10407445B2, “Hepatitis C virus inhibitors” (ENANTA PHARMACEUTICALS, INC., priority 2013, dated 2019).

What was measured:
GT2a-7a-QC69 replicon = test: Stable replicon assay, comparison to daclatasvir, GT2a-7a-QC69; type: cell-based; settings: Hepatitis C virus
Description: The plasmid pSG-hRlucNeo-JFH1 was generated from pSG-Neo-JFH1 (Kato et al. 2003, Gastroentrology 125:1808-1817). A fragment containing the JFH-1 5′ NTR-hRluc-Neo gene and two unique restriction sites (AgeI and PmeI) was synthesized (Integrated DNA Technologies, Coralville, Iowa). The resulting plasmid was digested with AgeI and PmeI and the excised fragment (5′NTR-hRluc-Neo) was ligated into pSG-Neo-JFH1 digested with the same enzymes to generate pSG-hRlucNeo-JFH1. To allow expression of heterologous NS5A sequences, an NS5A shuttle vector was generated from pSG-Neo-JFH1, in which the entire coding sequence of NS5A plus the first eight codons of NS5B were replaced with an AfeI restriction site. This was done by Infusion cloning (Clontech, Mountain View, Calif.) from two PCR products that were generated using pSG-Neo-JFH1 as a template and the following primer pairs: […]
Stable HCV replicon cell lines were grown in complete media (Dulbecco's modified Eagle medium [DMEM], 2 mM L-glutamine, 0.1 mM essential amino acids, 1 mM sodium pyruvate, 10% fetal bovine serum) with the addition 500 μg/ml […] (G418). […] For stable and transient replicon assays, luciferase activity of compound-treated cells was measured relative to DMSO-treated cells after 72 h incubation using RENILLA-GLO™ Luciferase Assay (Promega). […]

[1] = test system: HCV genotype 1a replicon, NS5A M28T; test: Transient replication assay, GT1a NS5A M28T; type: cell-based; settings: Hepatitis C virus
[2] = test system: HCV genotype 1a replicon, NS5A L31M; test: Transient replication assay, GT1a NS5A L31M; type: cell-based; settings: Hepatitis C virus
[3] = test system: wild type (wt) HCV genotype 1a replicon; test: Transient replication assay, HCV genotype 1a wild type (wt); type: cell-based; settings: Hepatitis C virus; HCV genotype 1a replicon wt
[4] = test system: HCV genotype 1b replicon Huh7-lunet cells; test: Resistance barrier analysis in HCV genotype 1b replicon cells (crystal violet staining); type: cell-based, Hepatitis C virus; settings: 2×EC50, 3 weeks in the presence of G418
Method: Stable HCV genotype 1b replicon Huh7-lunet cells were plated in 100 mm cell culture dishes (1.5×10^5 and 3×10^5 cells/dish for DMSO control and compound treated cells, respectively) and incubated for 24 hr (37° C., 5% CO2) prior to compound addition. Compounds (solubilized in DMSO) were prepared in complete media (0.5% DMSO final) and added to cells. Cells were maintained in the presence of compound (or DMSO) and G418 (500 μg/mL) for 3 weeks with media replacement two times per week. Cells were then fixed (4% paraformaldehyde, 30 min at room temperature) and stained (0.5% crystal violet/25% methanol, 20 min room temperature) to allow visualization of surviving cells. Plates were then washed with water to remove excess stain and left to air dry overnight prior to imaging (BioRad Gel Doc XR+Molecular Imager).
FIG. 1 illustrates comparison of a compound of the invention to daclatasvir in a test that provides a qualitative indication of the occurrence of resistance. […] The control plate, with DMSO alone (no compound 16 or daclatasvir), is almost completely opaque.

Question: `COC(=O)N[C@H](C(=O)N1CCC[C@H]1c1nc(-c2ccc(-c3ccc(-c4c[nH]c([C@@H]5CCCN5C(=O)[C@@H](NC(=O)OC)C(C)C)n4)cc3)cc2)c[nH]1)C(C)C` [Daclatasvir, reference compound] was tested. Which EC50 (GT2a-7a-QC69 replicon) did it give?
Answer: 0.016 nM

Question: What about the EC50 [1] of the same molecule?
Answer: 3.4 nM

Question: And the EC50 [2]?
Answer: 0.67 nM

Question: What about the EC50 [3] of the same molecule?
Answer: 0.0083 nM

Question: What does the source list for `COC(=O)N[C@H](C(=O)N1C[C@]2(CCCOC2)C[C@H]1c1ncc(-c2ccc(-c3ccc4c(ccc5nc([C@@H]6C[C@@H]7CCC[C@@H]7N6C(=O)[C@@H](NC(=O)OC)C(C)C)[nH]c54)c3)cc2)[nH]1)C(C)C` [Compound 16]?
Answer: EC50 (GT2a-7a-QC69 replicon): 0.02 nM; EC50 [1]: 0.049 nM; EC50 [2]: 0.0106 nM; EC50 [3]: 0.0014 nM; surviving replicon cells (crystal violet staining) [4]: almost entirely prevented replicon cell survival
